# Assay results from US9682995B2, “Amino-substituted isothiazoles” (BAYER PHARMA AKTIENGESELLSCHAFT, priority 2013, dated 2017).
# Assays:
# Assay in all cases: Kinase Profiling (KINOMEscan)
# Type in all cases: binding
# [1] = target: 456 kinases (of these 395 non-mutant kinases) (Homo sapiens, UniProt P54753); settings: EPHB3; 10 μM
# [2] = target: 456 kinases (of these 395 non-mutant kinases) (Homo sapiens, UniProt P31749); settings: AKT1; 10 μM
# [3] = target: 456 kinases (of these 395 non-mutant kinases) (Homo sapiens, UniProt O43283); settings: LZK; 10 μM
# [4] = target: 456 kinases (of these 395 non-mutant kinases) (Homo sapiens, UniProt P00533, DEL752-759); settings: EGFR(S752-I759del); 10 μM
# [5] = target: 456 kinases (of these 395 non-mutant kinases) (Homo sapiens, UniProt P10721, L576P); settings: KIT(L576P); 10 μM
# [6] = target: 456 kinases (of these 395 non-mutant kinases) (Homo sapiens, UniProt O00329); settings: PIK3CD; 10 μM
# [7] = target: 456 kinases (of these 395 non-mutant kinases) (Homo sapiens, UniProt P15056, V600E); settings: BRAF(V600E); 10 μM
# Chain of 456 kinases (of these 395 non-mutant kinases) (Homo sapiens, UniProt P15056, V600E) (P15056 2-766 V600E limits assumed): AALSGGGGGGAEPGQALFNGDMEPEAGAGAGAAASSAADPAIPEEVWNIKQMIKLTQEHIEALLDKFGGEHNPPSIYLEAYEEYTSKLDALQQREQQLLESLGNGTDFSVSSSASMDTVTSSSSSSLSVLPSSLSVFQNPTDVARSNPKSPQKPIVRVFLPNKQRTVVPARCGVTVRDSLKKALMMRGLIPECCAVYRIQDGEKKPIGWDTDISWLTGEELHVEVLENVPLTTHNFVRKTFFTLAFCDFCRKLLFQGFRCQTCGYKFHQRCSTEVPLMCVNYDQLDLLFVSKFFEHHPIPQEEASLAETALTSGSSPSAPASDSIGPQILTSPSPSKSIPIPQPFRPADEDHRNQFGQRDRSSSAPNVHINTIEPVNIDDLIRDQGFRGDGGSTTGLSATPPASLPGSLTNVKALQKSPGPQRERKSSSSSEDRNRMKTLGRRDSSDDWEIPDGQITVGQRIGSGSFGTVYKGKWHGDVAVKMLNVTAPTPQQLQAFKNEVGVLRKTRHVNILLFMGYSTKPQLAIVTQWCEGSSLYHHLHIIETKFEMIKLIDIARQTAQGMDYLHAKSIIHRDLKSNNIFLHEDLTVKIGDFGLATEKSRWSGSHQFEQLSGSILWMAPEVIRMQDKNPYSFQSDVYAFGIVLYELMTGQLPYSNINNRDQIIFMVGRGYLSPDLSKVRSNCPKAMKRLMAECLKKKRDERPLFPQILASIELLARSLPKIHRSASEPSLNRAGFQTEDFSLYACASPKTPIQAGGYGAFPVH
# [8] = target: 456 kinases (of these 395 non-mutant kinases) (Homo sapiens, UniProt P0C1S8); settings: WEE2; 10 μM
# [9] = target: 456 kinases (of these 395 non-mutant kinases) (Homo sapiens, UniProt Q16566); settings: CAMK4; 10 μM
# [10] = target: 456 kinases (of these 395 non-mutant kinases) (Homo sapiens, UniProt P54762); settings: EPHB1; 10 μM
# [11] = target: 456 kinases (of these 395 non-mutant kinases) (Homo sapiens, UniProt Q8IVH8); settings: MAP4K3; 10 μM
# [12] = target: 456 kinases (of these 395 non-mutant kinases) (Homo sapiens, UniProt Q9Y6E0); settings: MST3; 10 μM
# [13] = target: 456 kinases (of these 395 non-mutant kinases) (Homo sapiens, UniProt O94921); settings: PFTK1; 10 μM
# [14] = target: 456 kinases (of these 395 non-mutant kinases) (Homo sapiens, UniProt Q9NRH2); settings: SNRK; 10 μM
# [15] = target: 456 kinases (of these 395 non-mutant kinases) (Homo sapiens, UniProt Q9UF33); settings: EPHA6; 10 μM
# [16] = target: 456 kinases (of these 395 non-mutant kinases) (Homo sapiens, UniProt P10721, A829P); settings: KIT(A829P); 10 μM
# Chain of 456 kinases (of these 395 non-mutant kinases) (Homo sapiens, UniProt P10721, A829P) (P10721 26-976 A829P limits assumed): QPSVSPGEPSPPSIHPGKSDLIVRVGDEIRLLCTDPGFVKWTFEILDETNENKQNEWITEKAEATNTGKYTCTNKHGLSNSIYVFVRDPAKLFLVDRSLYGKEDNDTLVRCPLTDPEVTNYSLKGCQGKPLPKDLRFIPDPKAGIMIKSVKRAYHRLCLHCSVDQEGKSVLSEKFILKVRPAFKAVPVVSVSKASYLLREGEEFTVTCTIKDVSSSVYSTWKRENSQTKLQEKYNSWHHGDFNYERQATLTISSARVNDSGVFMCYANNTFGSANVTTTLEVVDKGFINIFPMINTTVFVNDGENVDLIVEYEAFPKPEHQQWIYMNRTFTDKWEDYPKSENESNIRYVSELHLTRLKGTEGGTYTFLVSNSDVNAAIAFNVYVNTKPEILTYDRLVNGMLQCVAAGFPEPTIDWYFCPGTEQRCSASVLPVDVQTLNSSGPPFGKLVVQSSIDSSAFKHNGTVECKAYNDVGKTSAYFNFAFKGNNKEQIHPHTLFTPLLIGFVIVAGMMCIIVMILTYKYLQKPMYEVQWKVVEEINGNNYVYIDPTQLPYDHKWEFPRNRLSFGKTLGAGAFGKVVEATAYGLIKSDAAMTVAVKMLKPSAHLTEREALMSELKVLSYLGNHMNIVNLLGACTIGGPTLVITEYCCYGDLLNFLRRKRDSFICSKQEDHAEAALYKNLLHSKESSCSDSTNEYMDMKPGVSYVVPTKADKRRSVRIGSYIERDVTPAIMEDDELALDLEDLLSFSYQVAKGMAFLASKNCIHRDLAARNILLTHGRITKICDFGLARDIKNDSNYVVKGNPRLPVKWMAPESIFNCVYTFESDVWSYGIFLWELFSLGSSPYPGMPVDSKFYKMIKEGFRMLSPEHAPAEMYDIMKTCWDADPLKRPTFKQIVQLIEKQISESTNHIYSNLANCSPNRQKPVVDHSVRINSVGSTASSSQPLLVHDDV
# [17] = target: 456 kinases (of these 395 non-mutant kinases) (Homo sapiens, UniProt Q96Q40); settings: PFTAIRE2; 10 μM
# [18] = target: 456 kinases (of these 395 non-mutant kinases) (Homo sapiens, UniProt Q9Y2H1); settings: NDR2; 10 μM
# [19] = target: 456 kinases (of these 395 non-mutant kinases) (Homo sapiens, UniProt P15735); settings: PHKG2; 10 μM
# [20] = target: 456 kinases (of these 395 non-mutant kinases) (Homo sapiens, UniProt Q13546); settings: RIPK1; 10 μM
# [21] = target: 456 kinases (of these 395 non-mutant kinases) (Homo sapiens, UniProt P21709); settings: EPHA1; 10 μM
# Chain of 456 kinases (of these 395 non-mutant kinases) (Homo sapiens, UniProt P21709) (P21709 26-976 limits assumed, change not shown): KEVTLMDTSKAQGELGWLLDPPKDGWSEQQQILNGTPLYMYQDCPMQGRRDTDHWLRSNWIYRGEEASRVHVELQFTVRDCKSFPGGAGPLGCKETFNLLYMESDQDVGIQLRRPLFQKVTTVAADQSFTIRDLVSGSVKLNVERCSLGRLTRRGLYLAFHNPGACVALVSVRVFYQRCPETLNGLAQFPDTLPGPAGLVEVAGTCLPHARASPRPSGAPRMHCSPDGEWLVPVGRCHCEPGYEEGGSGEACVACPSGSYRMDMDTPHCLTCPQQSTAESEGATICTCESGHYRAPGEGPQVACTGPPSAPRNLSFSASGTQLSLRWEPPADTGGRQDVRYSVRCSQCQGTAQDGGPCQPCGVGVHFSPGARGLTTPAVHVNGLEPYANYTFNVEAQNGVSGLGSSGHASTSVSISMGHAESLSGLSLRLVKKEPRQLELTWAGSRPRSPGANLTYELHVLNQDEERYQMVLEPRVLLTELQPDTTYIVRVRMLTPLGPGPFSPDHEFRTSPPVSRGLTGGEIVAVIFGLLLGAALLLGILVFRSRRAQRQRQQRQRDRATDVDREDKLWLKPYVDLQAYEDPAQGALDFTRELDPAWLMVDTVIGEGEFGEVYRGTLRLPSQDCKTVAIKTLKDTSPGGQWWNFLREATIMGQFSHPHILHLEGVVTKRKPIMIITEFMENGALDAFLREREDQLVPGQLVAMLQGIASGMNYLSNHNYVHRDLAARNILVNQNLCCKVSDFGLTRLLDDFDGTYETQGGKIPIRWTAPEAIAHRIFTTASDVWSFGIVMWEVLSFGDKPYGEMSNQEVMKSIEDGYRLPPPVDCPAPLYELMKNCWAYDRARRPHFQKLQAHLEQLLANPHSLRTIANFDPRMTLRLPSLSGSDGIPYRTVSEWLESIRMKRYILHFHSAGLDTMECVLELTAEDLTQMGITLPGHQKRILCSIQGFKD
# [22] = target: 456 kinases (of these 395 non-mutant kinases) (Homo sapiens, UniProt Q86Y07); settings: VRK2; 10 μM
# [23] = target: 456 kinases (of these 395 non-mutant kinases) (Homo sapiens, UniProt P12931); settings: SRC; 10 μM
# [24] = target: 456 kinases (of these 395 non-mutant kinases) (Homo sapiens, UniProt P36888, N841I); settings: FLT3(N841I); 10 μM
# [25] = target: 456 kinases (of these 395 non-mutant kinases) (Homo sapiens, UniProt P43403); settings: ZAP70; 10 μM
# [26] = target: 456 kinases (of these 395 non-mutant kinases) (Homo sapiens, UniProt P54760); settings: EPHB4; 10 μM
# [27] = target: 456 kinases (of these 395 non-mutant kinases) (Homo sapiens, UniProt O75460); settings: ERN1; 10 μM
# Chain of 456 kinases (of these 395 non-mutant kinases) (Homo sapiens, UniProt O75460) (O75460 19-977 limits assumed, change not shown): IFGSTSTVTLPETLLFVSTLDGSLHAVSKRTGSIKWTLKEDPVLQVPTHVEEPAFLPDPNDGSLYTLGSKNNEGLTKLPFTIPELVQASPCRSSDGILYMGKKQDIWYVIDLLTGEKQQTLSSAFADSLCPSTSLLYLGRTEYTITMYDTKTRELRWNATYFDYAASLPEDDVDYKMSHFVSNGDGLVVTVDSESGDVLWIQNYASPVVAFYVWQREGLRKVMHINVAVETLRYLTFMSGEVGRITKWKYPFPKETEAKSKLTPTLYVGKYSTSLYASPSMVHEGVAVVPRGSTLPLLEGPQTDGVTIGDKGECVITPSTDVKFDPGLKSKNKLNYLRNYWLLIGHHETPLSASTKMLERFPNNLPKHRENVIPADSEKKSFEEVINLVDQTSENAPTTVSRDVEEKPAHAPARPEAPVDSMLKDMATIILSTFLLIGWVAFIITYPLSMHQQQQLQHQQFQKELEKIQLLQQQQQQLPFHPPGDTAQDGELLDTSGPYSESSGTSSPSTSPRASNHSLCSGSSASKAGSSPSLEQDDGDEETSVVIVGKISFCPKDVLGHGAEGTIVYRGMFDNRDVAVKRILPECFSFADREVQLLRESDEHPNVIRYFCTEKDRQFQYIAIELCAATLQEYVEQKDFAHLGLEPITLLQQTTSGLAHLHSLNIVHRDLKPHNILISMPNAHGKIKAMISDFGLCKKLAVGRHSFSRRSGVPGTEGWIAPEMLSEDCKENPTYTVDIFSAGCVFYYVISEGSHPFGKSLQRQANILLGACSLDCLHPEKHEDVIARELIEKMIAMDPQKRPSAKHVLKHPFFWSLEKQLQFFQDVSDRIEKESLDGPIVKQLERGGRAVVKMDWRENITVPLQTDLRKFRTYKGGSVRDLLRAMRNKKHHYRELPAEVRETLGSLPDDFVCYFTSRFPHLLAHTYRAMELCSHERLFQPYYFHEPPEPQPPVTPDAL
# [28] = target: 456 kinases (of these 395 non-mutant kinases) (Homo sapiens, UniProt Q9H2G2); settings: SLK; 10 μM
# [29] = target: 456 kinases (of these 395 non-mutant kinases) (Homo sapiens, UniProt P68400); settings: CSNK2A1; 10 μM
# [30] = target: 456 kinases (of these 395 non-mutant kinases) (Homo sapiens, UniProt P41240); settings: CSK; 10 μM
# [31] = target: 456 kinases (of these 395 non-mutant kinases) (Homo sapiens, UniProt Q02156); settings: PRKCE; 10 μM
# [32] = target: 456 kinases (of these 395 non-mutant kinases) (Homo sapiens, UniProt P78356); settings: PIP5K2B; 10 μM
# Chain of 456 kinases (of these 395 non-mutant kinases) (Homo sapiens, UniProt P78356) (P78356 2-416 limits assumed, change not shown): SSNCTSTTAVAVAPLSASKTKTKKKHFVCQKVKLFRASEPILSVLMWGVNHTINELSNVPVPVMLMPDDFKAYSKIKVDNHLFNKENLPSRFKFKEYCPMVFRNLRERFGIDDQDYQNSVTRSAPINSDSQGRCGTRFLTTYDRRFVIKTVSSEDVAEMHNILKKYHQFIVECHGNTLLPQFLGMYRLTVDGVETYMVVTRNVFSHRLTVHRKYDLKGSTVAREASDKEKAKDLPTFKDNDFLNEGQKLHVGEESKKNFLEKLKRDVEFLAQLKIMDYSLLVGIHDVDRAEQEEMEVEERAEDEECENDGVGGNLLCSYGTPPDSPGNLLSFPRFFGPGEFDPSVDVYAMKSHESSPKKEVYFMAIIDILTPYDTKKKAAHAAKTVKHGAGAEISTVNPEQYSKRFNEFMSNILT
# Chain of 456 kinases (of these 395 non-mutant kinases) (Homo sapiens, UniProt P54753) (P54753 34-998 limits assumed, change not shown): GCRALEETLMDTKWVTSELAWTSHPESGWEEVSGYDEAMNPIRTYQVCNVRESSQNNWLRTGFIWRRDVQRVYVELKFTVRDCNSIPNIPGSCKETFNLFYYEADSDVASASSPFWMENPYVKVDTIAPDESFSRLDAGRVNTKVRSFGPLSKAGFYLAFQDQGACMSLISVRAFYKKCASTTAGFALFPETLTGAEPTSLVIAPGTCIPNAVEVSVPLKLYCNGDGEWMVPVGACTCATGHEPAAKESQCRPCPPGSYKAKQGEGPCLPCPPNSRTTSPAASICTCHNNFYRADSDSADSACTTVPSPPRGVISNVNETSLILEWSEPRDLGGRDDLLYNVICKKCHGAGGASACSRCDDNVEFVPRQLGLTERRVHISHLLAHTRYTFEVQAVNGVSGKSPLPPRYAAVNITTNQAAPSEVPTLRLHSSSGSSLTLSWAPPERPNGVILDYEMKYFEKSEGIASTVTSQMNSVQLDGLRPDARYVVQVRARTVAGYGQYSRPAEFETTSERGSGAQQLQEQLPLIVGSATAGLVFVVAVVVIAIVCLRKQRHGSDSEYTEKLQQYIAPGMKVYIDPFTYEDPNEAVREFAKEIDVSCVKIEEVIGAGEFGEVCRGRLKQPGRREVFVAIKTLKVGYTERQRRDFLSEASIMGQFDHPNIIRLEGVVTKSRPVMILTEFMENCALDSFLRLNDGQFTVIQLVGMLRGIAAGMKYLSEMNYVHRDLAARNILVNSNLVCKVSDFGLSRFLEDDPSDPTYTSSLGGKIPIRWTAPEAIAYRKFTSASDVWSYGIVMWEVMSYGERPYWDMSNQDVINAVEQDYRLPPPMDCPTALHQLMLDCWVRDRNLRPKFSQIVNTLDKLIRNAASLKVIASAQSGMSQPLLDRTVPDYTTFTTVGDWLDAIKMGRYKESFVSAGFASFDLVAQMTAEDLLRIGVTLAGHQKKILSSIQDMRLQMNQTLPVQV
structure (smiles),measurement,setting,value
"CCc1ccccc1NC(=O)c1c(C)nsc1Nc1cnc2cc(F)ccc2n1 [Example 20, N-(2-Ethylphenyl)-5-[(6-fluoroquinoxalin-2-yl)amino]-3-methyl-1,2-thiazole-4-carboxamide]",% Ctrl @ 10 μM,[1],82 % Ctrl
same,% Ctrl @ 10 μM,[2],100 % Ctrl
same,% Ctrl @ 10 μM,[3],88 % Ctrl
same,% Ctrl @ 10 μM,[4],100 % Ctrl
same,% Ctrl @ 10 μM,[5],100 % Ctrl
same,% Ctrl @ 10 μM,[6],100 % Ctrl
same,% Ctrl @ 10 μM,[7],100 % Ctrl
same,% Ctrl @ 10 μM,[8],100 % Ctrl
same,% Ctrl @ 10 μM,[9],100 % Ctrl
same,% Ctrl @ 10 μM,[10],96 % Ctrl
same,% Ctrl @ 10 μM,[11],83 % Ctrl
same,% Ctrl @ 10 μM,[12],75 % Ctrl
same,% Ctrl @ 10 μM,[13],93 % Ctrl
same,% Ctrl @ 10 μM,[14],100 % Ctrl
same,% Ctrl @ 10 μM,[15],85 % Ctrl
same,% Ctrl @ 10 μM,[16],94 % Ctrl
same,% Ctrl @ 10 μM,[17],84 % Ctrl
same,% Ctrl @ 10 μM,[18],75 % Ctrl
same,% Ctrl @ 10 μM,[19],99 % Ctrl
same,% Ctrl @ 10 μM,[20],99 % Ctrl
same,% Ctrl @ 10 μM,[21],95 % Ctrl
same,% Ctrl @ 10 μM,[22],100 % Ctrl
same,% Ctrl @ 10 μM,[23],100 % Ctrl
same,% Ctrl @ 10 μM,[24],84 % Ctrl
same,% Ctrl @ 10 μM,[25],88 % Ctrl
same,% Ctrl @ 10 μM,[26],96 % Ctrl
same,% Ctrl @ 10 μM,[27],100 % Ctrl
same,% Ctrl @ 10 μM,[28],95 % Ctrl
same,% Ctrl @ 10 μM,[29],85 % Ctrl
same,% Ctrl @ 10 μM,[30],100 % Ctrl
same,% Ctrl @ 10 μM,[31],75 % Ctrl
same,% Ctrl @ 10 μM,[32],86 % Ctrl
